According to patent publication US5332733A, “Heterocyclically substituted piperazinoakylbenzoxazine and piperazinoalkylbenzothiazine compounds, processes for preparing them, and medicaments containing them” (Kali-Chemie Pharma GmbH, priority 1990, dated 1994):
Read-outs that look alike come from different tables or passages of the source.

Legend:
[1] = molecular target: T1, cyclooxygenase (Mus musculus, UniProt P22437); experiment: In vitro cyclooxygenase inhibition, release of 6-keto-PGF1α from zymosan-stimulated peritoneal macrophages; type: cell-based; settings: zymosan-stimulated mouse peritoneal macrophage cells, 10^-5 mole/l
T1 construct: A cell suspension containing peritoneal cells from male mice 8-10 weeks old was obtained in a known manner; endogenous in cells; host or cells: mouse peritoneal macrophages (primary, adherent)
T1 sequence (P22437 27-602): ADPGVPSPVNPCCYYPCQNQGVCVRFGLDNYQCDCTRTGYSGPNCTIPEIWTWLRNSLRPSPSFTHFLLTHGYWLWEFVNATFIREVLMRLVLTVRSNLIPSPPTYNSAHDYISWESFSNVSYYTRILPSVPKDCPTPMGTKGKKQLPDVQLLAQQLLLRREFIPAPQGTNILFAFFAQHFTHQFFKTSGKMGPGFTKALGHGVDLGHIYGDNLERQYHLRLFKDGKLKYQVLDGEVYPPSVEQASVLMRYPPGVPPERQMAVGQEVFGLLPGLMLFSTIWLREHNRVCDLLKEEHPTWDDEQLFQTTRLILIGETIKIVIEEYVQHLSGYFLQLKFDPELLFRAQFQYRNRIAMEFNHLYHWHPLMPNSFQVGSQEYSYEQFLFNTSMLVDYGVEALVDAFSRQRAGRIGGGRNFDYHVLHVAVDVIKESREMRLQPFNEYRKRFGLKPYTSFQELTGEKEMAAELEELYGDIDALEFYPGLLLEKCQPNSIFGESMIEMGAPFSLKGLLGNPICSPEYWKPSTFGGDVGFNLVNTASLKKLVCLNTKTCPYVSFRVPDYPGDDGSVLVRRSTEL
From the text: 5. In Vitro Determination of Cyclooxygenase Inhibition And 5-lipoxygenase Inhibition.
After a cell is activated, arachidonic acid contained in cell membranes is metabolized in two ways. Leucotrienes, inter alia leucotriene C4, are formed due to the action of the enzyme 5-lipoxygenase (=5-LO), and prostanoids are formed due to the action of the enzyme cyclooxygenase (=CO). In in vitro systems these metabolites are secreted from the cell.
To evaluate the cyclooxygenase-inhibiting and 5-lipoxygenase-inhibiting properties of the test substances, their inhibitory activity on the biosynthesis of the arachidonic acid derivatives leucotriene C4 (=LTC4) and 6-keto-prostaglandin F1α (=6-keto-PGF1α) was determined in vitro on mouse peritoneal macrophage cells. For this purpose the LTC4 and 6-keto-PGF1α contents of a mouse peritoneal macrophage cell culture medium were determined by zymosan stimulation as described by Scott et al. (J. Exp. Med. 152 (1980), 324-335) and by Fradin et al., (Prostaglandins, 33 (1987), 579-589).
A cell suspension containing peritoneal cells from male mice 8-10 weeks old was obtained in a known manner. A solution marketed under the designation RPMI 1640 (Manufactured by Gibco) was used as the cell culture medium, to which heparin (10 international units/ml) and antibiotics were added according to the procedure of Bonney et al. (Biochem. J. 176 (1978) 422-433). The cell suspension was adjusted to a cell concentration of 10^6 cells per ml and distributed uniformly on titer dishes containing 24 1-ml titer cells (wells). These were kept for two hours in a humidified incubator filled with air enriched with 7% CO2. Cells not adhering to the titer well walls were then removed by washing. The remaining macrophage cells adhering to the walls were incubated for about 12 hours in a suspension medium to which 0.1% of bovine serum albumin (BSA=Bovine Serum Albumin) was added. The suspension medium was then replaced by a Hanks salt solution (=Hanks Balanced Salt Solution=HBSS) with 10 mmoles of HEPES (=hydroxyethylpiperazinoethanesulfonic acid) to which a 0.1% strength solution of the test substances in aqueous, 1% strength dimethylformamide or only the solvent had been added. After 15 minutes the arachidonic acid metabolism was stimulated by adding […] of zymosan (=glycoprotein mixture isolated from cell walls of beer yeast, Saccharomyces cerevisiae, Manufactured by Sigma Chemical Co., Munich) per titre cell. After 2 hours samples of the respective supernatant liquid in each cell were examined for their 6-keto-PGF1α and LTC4 contents by an enzyme immunoassay (=EIA). This EIA is carried out following the method of Pradelles et al. (Analytical Chem. 57 (1985), 1170-1173). The determination of LTC4 and the determination of 6-keto-PGF1α were each carried out on suitable dilutions of the samples (1:50 to 1:250 for the LTC4 determination and 1:250 to 1:1,250 for the 6-keto-PGF1α determination) in comparison with a comparative scale. To determine the inhibiting effect of a 10^-5 molar concentration of the compounds, the amounts of reference eicosanoid were determined, and the inhibiting effect was calculated therefrom in % inhibition compared to the measurements of the zymosan controls.

[2] = molecular target: T2, histamine-(H1)-receptor (Cavia porcellus, UniProt P31389); experiment: Histamine-(H1)-receptor antagonism in vitro, histamine-induced contractions of isolated ileum; type: cell-based, guinea pig (Dunkin Hartley); settings: test substance 10^-6 mole/l, histamine 5 × 10^-6 mole/l
T2 construct: Segments of the ileum 1.5 cm long from Dunkin Hartley guinea pigs; from tissue; host or cells: isolated ileum of Dunkin Hartley guinea pigs
Protocol: 3. Investigation of Anti-Histamine-(H1) Effect Based on Histamine-(H1)-Receptor Antagonism In Vitro
To investigate the histamine-(H1)-receptor antagonism of the test substances, the inhibiting effect of the substances on histamine-induced contractions of the smooth muscle was determined in vitro on the isolated organ. Isolated strips of organ from the ileum are suitable for this purpose. In an organ bath of physiological saline solution the smooth muscle strips react to the addition of histamine by contracting. […] The extent of regression of the contraction is an indication of the anti-histamine-(H1) activity of the compounds. The investigation was carried out analogously to the method originally described by Magnus (Pfluegers Arch. 102, 123 (1904)).
Procedure for determining the smooth muscle contraction inhibiting effect on isolated guinea pig ileum induced by a 5×10^-6 molar histamine concentration
Segments of the ileum 1.5 cm long from Dunkin Hartley guinea pigs having a body weight of 300 500 g were used for the test. Each strip was placed in an organ bath of 10 ml of physiological saline solution according to Krebs-Henseleit and attached to a conventional apparatus for isotonic measurement of changes in length of the ileum strips (automated Celaster measuring apparatus), so that the tissue was under 1 g of tension. The bath was kept at a pH of 7.4 and gassed with a mixture of 5% CO2 and 95% O2. After an equilibration phase, an isotonic contraction of the tissue was induced by adding histamine in a final concentration of 5×10^-6 mole/liter and washing it out again after a contact time of 30 seconds. Only tissues samples from which three reproducible contractions were obtained at 10 minute intervals were used in the subsequent test. The test substances were then added in a final concentration of 10^-6 mole/liter, and after 30 seconds contact time histamine was again added up to a concentration of 5×10^-6 mole/liter. The resulting contractions were measured over 30 seconds. The tissue was then washed several times over a period of 10 minutes. Histamine was then added again to stimulate a contraction. The resulting contractions were again measured over 30 seconds. The difference between the amplitude of the contraction obtained by histamine addition alone and the amplitude of the contraction obtained in the presence of the test substance was determined and expressed in terms of % inhibition.
The inhibiting effects on the contractions induced by histamine 30 seconds after administration of the test substance and on the contractions induced by the addition of histamine 10 minutes later are listed in the table.

[3] = 0.5 min, after 30 seconds, read-out: % inhibition of histamine-induced ileum contractions after 30 seconds
[4] = 10 min, after 10 minutes (after washing), read-out: % inhibition of histamine-induced ileum contractions after 10 minutes

T2 sequence (P31389 whole entry): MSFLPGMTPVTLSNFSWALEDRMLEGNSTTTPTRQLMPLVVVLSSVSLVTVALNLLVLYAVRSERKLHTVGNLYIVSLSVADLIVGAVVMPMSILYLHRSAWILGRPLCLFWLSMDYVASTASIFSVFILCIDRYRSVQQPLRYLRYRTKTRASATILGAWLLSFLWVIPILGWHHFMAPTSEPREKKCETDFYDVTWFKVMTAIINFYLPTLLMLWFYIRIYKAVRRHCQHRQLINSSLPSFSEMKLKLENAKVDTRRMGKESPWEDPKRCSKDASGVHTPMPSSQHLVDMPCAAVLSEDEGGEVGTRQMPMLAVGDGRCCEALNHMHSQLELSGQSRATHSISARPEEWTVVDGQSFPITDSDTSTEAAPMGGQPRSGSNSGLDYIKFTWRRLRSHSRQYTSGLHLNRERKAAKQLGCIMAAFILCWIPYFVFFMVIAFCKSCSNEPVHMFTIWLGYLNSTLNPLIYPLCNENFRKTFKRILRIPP

Row | Structure (SMILES) | % inhibition upon release of 6-keto-PGF1α [1] [%] | inhibition at 1 µM [2, 3] [%] | inhibition at 1 µM [2, 4] [%]
1 | Cc1ccnc(N2CCN(CCCC3Sc4ccccc4NC3=S)CC2)c1 (centres unmarked) [Example 11] | 0 | 32 | 35
2 | Cc1ccnc(N2CCN(CCCC3Oc4ccccc4NC3=O)CC2)c1 (centres unmarked) [Example 9] | 32 | – | –
3 | Cc1ccnc(N2CCN(CCCCC3Oc4ccccc4NC3=O)CC2)c1 (centres unmarked) [Example 7] | 17 | 85 | 74
4 | O=C1Nc2ccccc2SC1CCCN1CCN(c2ccc(Cl)cn2)CC1 (centres unmarked) [Example 15] | 46 | – | –
5 | Cc1ccnc(N2CCN(CCCC3Sc4ccccc4NC3=O)CC2)c1 (centres unmarked) [Example 8] | – | 42 | 5
6 | Cc1ccnc(N2CCN(CCCCC3Sc4ccccc4NC3=O)CC2)c1 (centres unmarked) [Example 1, 2-{4-[4-(4-methylpyridin-2-yl)-piperazin-1-yl]butyl}-2H-1,4-benzothiazine-3(4H)-one] | 27 | – | –
